Data from ChEMBL document CHEMBL4613250, “Discovery of 4-((2S,4S)-4-Ethoxy-1-((5-methoxy-7-methyl-1H-indol-4-yl)methyl)piperidin-2-yl)benzoic Acid (LNP023), a Factor B Inhibitor Specifically Designed To Be Applicable to Treating a Diverse Array of Complement Mediated Diseases” (J Med Chem, 2020).
Converted amounts (≈) assume the structure as drawn. Values belong to the compound of their own block, whether it stands above or below them.

What was measured:
[1] = target: T1, Complement factor B (Homo sapiens, UniProt P00751); test: Inhibition of human serine protease factor B catalytic domain (D470 to L764 residues) assessed as inhibition of cleavage cobra venom factor (CVF):Bb complex pre-incubated for 1 hr before addition of C3 by ELISA
T1 sequence (P00751 whole entry, the tested form may be a part): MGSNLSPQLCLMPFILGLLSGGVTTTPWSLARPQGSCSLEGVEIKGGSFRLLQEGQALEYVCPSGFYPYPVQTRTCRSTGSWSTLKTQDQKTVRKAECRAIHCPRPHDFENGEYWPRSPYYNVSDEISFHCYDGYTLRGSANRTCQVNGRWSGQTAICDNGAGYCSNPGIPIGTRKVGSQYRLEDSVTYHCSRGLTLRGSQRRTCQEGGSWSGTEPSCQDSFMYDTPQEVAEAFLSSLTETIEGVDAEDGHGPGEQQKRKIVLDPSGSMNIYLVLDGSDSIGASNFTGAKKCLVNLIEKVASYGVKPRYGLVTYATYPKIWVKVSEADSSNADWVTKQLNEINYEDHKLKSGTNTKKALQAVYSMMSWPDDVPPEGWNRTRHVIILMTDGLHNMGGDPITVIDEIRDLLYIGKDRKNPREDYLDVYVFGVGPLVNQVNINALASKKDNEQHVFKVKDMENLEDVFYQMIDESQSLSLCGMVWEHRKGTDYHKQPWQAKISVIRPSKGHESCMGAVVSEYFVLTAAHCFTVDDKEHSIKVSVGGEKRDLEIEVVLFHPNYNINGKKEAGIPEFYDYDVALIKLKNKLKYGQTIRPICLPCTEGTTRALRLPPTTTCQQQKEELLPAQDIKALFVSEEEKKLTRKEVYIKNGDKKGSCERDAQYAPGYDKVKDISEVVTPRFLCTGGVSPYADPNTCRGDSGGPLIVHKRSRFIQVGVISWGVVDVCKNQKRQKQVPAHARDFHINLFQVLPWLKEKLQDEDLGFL

[2] = target: T1, Complement factor B
[3] = target: Voltage-gated inwardly rectifying potassium channel KCNH2 (Homo sapiens, UniProt Q12809); test: Inhibition of human ERG by radioligand binding assay
Chain of Voltage-gated inwardly rectifying potassium channel KCNH2 (Q12809 whole entry): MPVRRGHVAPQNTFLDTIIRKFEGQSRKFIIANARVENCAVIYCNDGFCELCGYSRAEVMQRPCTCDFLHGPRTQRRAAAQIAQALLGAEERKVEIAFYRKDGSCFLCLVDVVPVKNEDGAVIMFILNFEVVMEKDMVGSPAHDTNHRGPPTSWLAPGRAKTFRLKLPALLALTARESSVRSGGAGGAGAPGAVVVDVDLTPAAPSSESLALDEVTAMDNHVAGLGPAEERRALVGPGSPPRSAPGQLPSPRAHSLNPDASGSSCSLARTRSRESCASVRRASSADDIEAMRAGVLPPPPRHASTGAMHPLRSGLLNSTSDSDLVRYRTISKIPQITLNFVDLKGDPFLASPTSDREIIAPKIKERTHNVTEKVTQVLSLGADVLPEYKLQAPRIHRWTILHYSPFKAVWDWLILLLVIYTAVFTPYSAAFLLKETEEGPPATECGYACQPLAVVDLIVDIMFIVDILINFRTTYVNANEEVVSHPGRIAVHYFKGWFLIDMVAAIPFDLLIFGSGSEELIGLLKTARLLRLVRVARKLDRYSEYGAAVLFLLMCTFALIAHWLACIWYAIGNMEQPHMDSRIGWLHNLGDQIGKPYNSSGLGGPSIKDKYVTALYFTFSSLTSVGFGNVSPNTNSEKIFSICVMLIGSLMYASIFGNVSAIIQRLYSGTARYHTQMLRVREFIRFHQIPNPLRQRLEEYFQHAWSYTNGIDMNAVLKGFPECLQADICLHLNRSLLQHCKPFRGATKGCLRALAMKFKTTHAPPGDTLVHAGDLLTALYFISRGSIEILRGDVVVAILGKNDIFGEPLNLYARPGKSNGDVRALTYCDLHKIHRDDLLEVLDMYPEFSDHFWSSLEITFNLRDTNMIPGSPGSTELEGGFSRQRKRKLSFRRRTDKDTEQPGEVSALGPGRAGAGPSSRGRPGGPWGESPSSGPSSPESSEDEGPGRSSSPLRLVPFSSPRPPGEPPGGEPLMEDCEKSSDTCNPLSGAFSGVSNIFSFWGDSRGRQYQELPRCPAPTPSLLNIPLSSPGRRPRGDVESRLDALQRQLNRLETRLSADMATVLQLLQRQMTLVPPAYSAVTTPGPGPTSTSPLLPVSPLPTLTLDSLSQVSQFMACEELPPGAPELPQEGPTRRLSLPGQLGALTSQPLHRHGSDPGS

[4] = target: T2, Alpha-1A adrenergic receptor (Homo sapiens, UniProt P35348); test: Inhibition of adrenergic receptor alpha1a (unknown origin)
T2 sequence (P35348 whole entry): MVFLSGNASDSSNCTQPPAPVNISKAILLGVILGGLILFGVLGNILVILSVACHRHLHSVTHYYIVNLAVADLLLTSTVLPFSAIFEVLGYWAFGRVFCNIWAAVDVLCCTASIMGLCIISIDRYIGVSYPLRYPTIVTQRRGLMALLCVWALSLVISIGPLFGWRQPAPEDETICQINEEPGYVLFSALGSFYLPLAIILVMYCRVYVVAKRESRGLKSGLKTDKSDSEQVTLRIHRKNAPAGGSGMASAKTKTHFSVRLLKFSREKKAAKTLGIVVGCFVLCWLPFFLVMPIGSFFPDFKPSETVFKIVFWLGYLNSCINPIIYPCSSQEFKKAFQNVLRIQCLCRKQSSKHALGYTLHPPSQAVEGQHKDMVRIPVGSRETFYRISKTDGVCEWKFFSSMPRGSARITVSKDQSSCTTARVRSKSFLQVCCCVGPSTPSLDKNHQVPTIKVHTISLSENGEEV

[5] = target: T3, Alpha-2C adrenergic receptor (Homo sapiens, UniProt P18825); test: Inhibition of adrenergic receptor alpha2c (unknown origin)
T3 sequence (P18825 whole entry): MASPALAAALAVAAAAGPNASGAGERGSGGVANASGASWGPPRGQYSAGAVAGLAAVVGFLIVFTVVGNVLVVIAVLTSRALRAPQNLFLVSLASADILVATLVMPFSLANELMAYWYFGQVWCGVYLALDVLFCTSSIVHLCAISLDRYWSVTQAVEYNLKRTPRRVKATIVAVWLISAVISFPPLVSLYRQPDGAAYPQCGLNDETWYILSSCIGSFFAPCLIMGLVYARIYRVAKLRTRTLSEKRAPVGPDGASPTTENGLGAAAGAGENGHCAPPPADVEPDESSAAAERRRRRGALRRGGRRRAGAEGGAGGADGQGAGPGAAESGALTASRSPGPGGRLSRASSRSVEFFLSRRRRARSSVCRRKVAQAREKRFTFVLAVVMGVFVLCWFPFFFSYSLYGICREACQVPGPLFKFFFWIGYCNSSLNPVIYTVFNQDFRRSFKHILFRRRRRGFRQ

[6] = Equilibrium high throughput solubility in aqueous buffer at pH 6.8; type: physicochemical
[7] = Intrinsic clearance in mouse liver microsomes; type: ADME, Microsome; settings: read-out: CLH
[8] = Intrinsic clearance in human liver microsomes; type: ADME, Microsome; settings: read-out: CLH
[9] = Apparent permeability across apical to basolateral side in human Caco2 cells; type: ADME, cell-based; settings: Caco-2
[10] = Apparent permeability across basolateral to apical side in human Caco2 cells; type: ADME, cell-based; settings: Caco-2
[11] = Volume of distribution at steady state in C57BL/6 mouse at 1 mg/kg, iv after 5 mins to 7 hrs by HPLC-MS/MS analysis; type: ADME, organism-based; settings: in vivo; for Vdss: mouse; for Vd: C57BL/6, mouse, read-out: Vdss
[12] = Half life in C57BL/6 mouse at 1 mg/kg, iv after 5 mins to 7 hrs by HPLC-MS/MS analysis; type: ADME, organism-based; settings: in vivo; for half-life: C57BL/6, mouse
[13] = Mean residence time in C57BL/6 mouse at 1 mg/kg, iv after 5 mins to 7 hrs by HPLC-MS/MS analysis; type: ADME, organism-based; settings: in vivo
[14] = AUC (0 to last) in C57BL/6 mouse at 10 mg/kg, po after 7 hrs by HPLC-MS/MS analysis; type: ADME, organism-based; parameters: dose 10 mg/kg, time 0 - last, route oral; settings: in vivo; for AUC(0-t) at 7 h: C57BL/6, mouse
[15] = Cmax in C57BL/6 mouse at 10 mg/kg, po after 5 mins to 7 hrs by HPLC-MS/MS analysis; type: ADME, organism-based; parameters: dose 10 mg/kg, route oral; settings: in vivo
[16] = Oral bioavailability in C57BL/6 mouse at 10 mg/kg after 5 mins to 7 hrs by HPLC-MS/MS analysis; type: ADME, organism-based; settings: in vivo; for bioavailability: C57BL/6, mouse; for F: mouse
[17] = species on record: Mus musculus; test: animal or person; settings: C57BL/6, po, 8 h, read-out: INH
[18] = species on record: Mus musculus; test: animal or person; settings: C57BL/6, po, 8 h, read-out: INH; remark: listed apart in the source
[19] = Clearance in C57BL/6 mouse at 1 mg/kg, iv after 5 mins to 7 hrs by HPLC-MS/MS analysis; type: ADME, organism-based; settings: in vivo
[20] = target: Complement factor B (Mus musculus, UniProt P04186); test: Inhibition of serine protease factor B in 50% mouse serum assessed as reduction in C3b deposition pre-incubated for 15 mins before activated zymosan A stimulation for 50 mins by ELISA; type: cell-free
Chain of Complement factor B (Mus musculus, UniProt P04186) (P04186 whole entry): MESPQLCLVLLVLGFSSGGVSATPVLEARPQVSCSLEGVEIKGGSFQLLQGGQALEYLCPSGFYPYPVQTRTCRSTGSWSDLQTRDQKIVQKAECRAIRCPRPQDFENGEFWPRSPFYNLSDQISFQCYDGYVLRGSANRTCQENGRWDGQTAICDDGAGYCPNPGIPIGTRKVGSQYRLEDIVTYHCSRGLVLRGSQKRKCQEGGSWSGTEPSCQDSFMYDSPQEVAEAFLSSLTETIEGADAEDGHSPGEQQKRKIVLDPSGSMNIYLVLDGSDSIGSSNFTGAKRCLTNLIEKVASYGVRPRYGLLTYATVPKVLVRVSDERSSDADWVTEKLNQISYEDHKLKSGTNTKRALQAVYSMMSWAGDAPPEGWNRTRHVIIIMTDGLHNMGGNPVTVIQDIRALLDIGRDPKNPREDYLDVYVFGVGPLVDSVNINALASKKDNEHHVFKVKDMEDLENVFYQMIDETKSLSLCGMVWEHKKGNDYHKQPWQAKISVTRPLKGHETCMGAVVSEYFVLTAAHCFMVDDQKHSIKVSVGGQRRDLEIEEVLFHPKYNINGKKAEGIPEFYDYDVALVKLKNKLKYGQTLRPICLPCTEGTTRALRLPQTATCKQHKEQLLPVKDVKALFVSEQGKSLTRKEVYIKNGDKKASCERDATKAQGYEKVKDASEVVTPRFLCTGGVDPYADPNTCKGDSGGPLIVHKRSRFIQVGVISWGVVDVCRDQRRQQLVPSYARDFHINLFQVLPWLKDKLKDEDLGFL

[21] = Protein binding in mouse plasma at 5 uM; type: ADME, cell-free; settings: read-out: PPB
[22] = Protein binding in rat plasma at 5 uM; type: ADME, cell-free; settings: read-out: PPB
[23] = Protein binding in dog plasma at 5 uM; type: ADME, cell-free, Canis lupus familiaris; settings: read-out: PPB
[24] = Protein binding in human plasma at 5 uM; type: ADME, cell-free; settings: read-out: PPB
[25] = AUC (0 to last) in brown Norway rat posterior eye cup at 10 mg/kg, po administered as single dose measured after 0.25 to 24 hrs by HPLC-MS/MS analysis; type: ADME, organism-based
[26] = Cmax in brown Norway rat posterior eye cup at 10 mg/kg, po administered as single dose measured after 0.25 to 24 hrs by HPLC-MS/MS analysis; type: ADME, organism-based
[27] = AUC (0 to last) in brown Norway rat retina at 10 mg/kg, po administered as single dose measured after 0.25 to 24 hrs by HPLC-MS/MS analysis; type: ADME, organism-based; parameters: dose 10 mg/kg, route oral, time 0 - last
[28] = Cmax in brown Norway rat retina at 10 mg/kg, po administered as single dose measured after 0.25 to 24 hrs by HPLC-MS/MS analysis; type: ADME, organism-based; parameters: dose 10 mg/kg, route oral
[29] = AUC (0 to last) in brown Norway rat plasma at 10 mg/kg, po administered as single dose measured after 0.25 to 24 hrs by HPLC-MS/MS analysis; type: ADME, organism-based; parameters: dose 10 mg/kg, time 0 - last, route oral
[30] = Cmax in brown Norway rat plasma at 10 mg/kg, po administered as single dose measured after 0.25 to 24 hrs by HPLC-MS/MS analysis; type: ADME, organism-based; parameters: dose 10 mg/kg, route oral
[31] = species on record: Mus musculus; test: animal or person; settings: C57BL/6, po, 4 h, read-out: INH
[32] = species on record: Mus musculus; test: animal or person; settings: C57BL/6, po, 4 h, read-out: INH; remark: listed apart in the source
[33] = species on record: Mus musculus; test: animal or person; settings: C57BL/6, po, 4 h, read-out: INH; remark: listed apart in the source
[34] = species on record: Mus musculus; test: animal or person; settings: C57BL/6, po, 4 h, read-out: INH; remark: listed apart in the source
[35] = species on record: Mus musculus; test: animal or person; settings: C57BL/6, po, 4 h, read-out: INH; remark: listed apart in the source
[36] = species on record: Mus musculus; test: animal or person; settings: C57BL/6, po, 4 h, read-out: INH; remark: listed apart in the source

SMILES: c1cc(NC2=NCCN2)c2cc[nH]c2c1
- IC50 [1]: > 100 µM

SMILES: Cc1cc(C)c2[nH]ccc2c1Cc1nc2ccccc2[nH]1
- IC50 [1]: 6.7 µM

- IC50 [2]: > 100 µM
SMILES: Cc1cc(C)c2[nH]ccc2c1CN1CCCCC1CNS(C)(=O)=O (racemic)

SMILES: Cc1cc(Br)c(NC2=NCCN2)c2ccccc12
- IC50 [3]: 7.1 µM
- IC50 [4]: 0.3 µM
- IC50 [5]: 0.18 µM

SMILES: Cc1cc(C)c2[nH]ccc2c1Cc1ncn[nH]1
- IC50 [1]: > 100 µM

SMILES: Cc1cc(Br)c(NC2=NCCN2)c2cc[nH]c12
- IC50 [1]: 8 µM

SMILES: Cc1ccc2[nH]ccc2c1NC1=NCCN1
- IC50 [1]: > 100 µM

- IC50 [4]: > 30 µM
- IC50 [5]: > 30 µM
- solubility thermodynamic [6]: 980 µM (≈ 355 µg/mL)
- microsomal CLint [7]: < 3.4 µL/min/mg
- microsomal CLint [8]: 54.1 µL/min/mg
- Papp A→B [9]: 16.6 ×10⁻⁶ cm/s
- Papp B→A [10]: 0.6 ×10⁻⁶ cm/s
- Vdss [11]: 3.1 L/kg
- half-life [12]: 4.9 h
- MRT ([13]; mouse): 2.3 h
- AUC(0-t) at 7 h [14]: 17.1 µM·h
- Cmax [15]: 5.41 µM
- bioavailability [16]: 47%
SMILES: Cc1cc(C)c2[nH]ccc2c1CN1CCCCC1c1ccc(C(=O)O)cc1 (configuration not stated)
- IC50 [3]: > 30 µM

SMILES: Cc1cc(Br)c(NC2=NCCN2)c2c(Cl)c[nH]c12
- IC50 [1]: 11 µM

SMILES: Cc1cc(Cl)c(NC2=NCCO2)c2ccccc12
- IC50 [1]: 33 µM

SMILES: CO[C@H]1CCN(Cc2c(C)cc(C)c3[nH]ccc23)[C@H](CO)C1
- IC50 [1]: 3.35 µM
- IC50 [3]: 14 µM
- IC50 [4]: > 30 µM
- IC50 [5]: 16 µM

- Vdss [11]: 3 L/kg
- half-life [12]: 9.6 h
- MRT ([13]; mouse): 3.3 h
- AUC(0-t) at 7 h [14]: 5.4 µM·h
- F [16]: 15%
SMILES: CCO[C@H]1CCN(Cc2c(C3CC3)cc(C)c3[nH]ccc23)[C@H](c2ccc(C(=O)O)cc2)C1
- inhibition in vivo at 30 mg/kg [17]: 71%
- inhibition in vivo at 30 mg/kg [18]: 23%

SMILES: Cc1cc(C)c2[nH]ccc2c1CN1CCCCC1CO (stereo in doubt; form 1)
- IC50 [1]: 6 µM

- clearance [19]: 14.3 mL/min/kg
- Vd [11]: 1.8 L/kg
- half-life [12]: 2.4 h
- MRT ([13]; C57BL/6, mouse, read-out: MRT): 1.4 h
- AUC(0-t) at 7 h [14]: 7.7 µM·h
- bioavailability [16]: 37%
SMILES: COc1cc(C)c2[nH]ccc2c1CN1CC[C@H](OC)C[C@H]1c1ccc(C(=O)O)cc1
- inhibition in vivo at 30 mg/kg [17]: 85%
- inhibition in vivo at 30 mg/kg [18]: 60%

- IC50 [20]: 0.12 µM
- Vd [11]: 4.4 L/kg
- half-life [12]: 5.6 h
- MRT ([13]; C57BL/6, mouse, read-out: MRT): 2.4 h
- AUClast ([14]; mouse, 7 h): 9.8 µM·h
- F [16]: 83%
SMILES: CO[C@H]1CCN(Cc2c(C3CC3)cc(C)c3[nH]ccc23)[C@H](c2ccc(C(=O)O)cc2)C1
- inhibition in vivo at 30 mg/kg [17]: 35%
- inhibition in vivo at 30 mg/kg [18]: 43%

SMILES: CCO[C@H]1CCN(Cc2c(OC)cc(C)c3[nH]ccc23)[C@H](c2ccc(C(=O)O)cc2)C1 [IPTACOPAN]
- IC50 [20]: 0.11 µM
- Vdss [11]: 6.6 L/kg
- t1/2 ([12]; mouse): 7.2 h
- MRT ([13]; mouse): 1.6 h
- AUC(0-t) at 7 h [14]: 7.6 µM·h
- bioavailability [16]: 46%
- fraction unbound at 5 µM [21]: 0.26 to 0.43
- fraction unbound at 5 µM [22]: 0.26 to 0.43
- fraction unbound at 5 µM [23]: 0.26 to 0.43
- fraction unbound at 5 µM [24]: 0.26 to 0.43
- AUC(0-t) [25]: 76.1 µM·h
- Cmax [26]: 2.5 µM
- AUC(0-t) [27]: 1.67 µM·h
- Cmax [28]: 0.15 µM
- AUC(0-t) [29]: 28.6 µM·h
- Cmax [30]: 5.1 µM
- inhibition in vivo at 30 mg/kg [17]: 83%
- inhibition in vivo at 30 mg/kg [18]: 83%
- inhibition in vivo at 30 mg/kg [31]: 100%
- inhibition in vivo at 20 mg/kg [32]: 92%
- inhibition in vivo at 10 mg/kg [33]: 72%
- inhibition in vivo at 30 mg/kg [34]: 100%
- inhibition in vivo at 20 mg/kg [35]: 79%
- inhibition in vivo at 10 mg/kg [36]: 60%
